According to the supplement of paper PMC10307832:

How the values were obtained:
Assay in all cases: relative viability (nuclei count vs DMSO), 5 days (fraction); higher = more cells survive
GW-2580 + Pemetrexed = compound: COC1=CC=C(C=C1)COC2=C(C=C(C=C2)CC3=CN=C(N=C3N)N)OC [GW-2580] + Nc1nc2[nH]cc(CCc3ccc(C(=O)N[C@@H](CCC(=O)O)C(=O)O)cc3)c2c(=O)[nH]1 [Pemetrexed] (partner 0.2 µM)
Outline: (§1)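 Five library-drug doses in √10 steps were combined with a fixed anchor-drug dose, or a single drug was given alone, by pin tool to lung cancer cell lines in 1536-well plates the day after seeding. Nuclei were stained and counted after 5 days. Relative viability is the nuclei count in treated wells over that in vehicle wells, taken as the median of duplicate plates.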

Fedratinib + Trametinib = compound: Cc1cnc(Nc2ccc(OCCN3CCCC3)cc2)nc1Nc1cccc(S(=O)(=O)NC(C)(C)C)c1 [Fedratinib] + CC(=O)Nc1cccc(-n2c(=O)n(C3CC3)c(=O)c3c(Nc4ccc(I)cc4F)n(C)c(=O)c(C)c32)c1 [Trametinib] (partner 0.02 µM)
Outline: as §1

GW-2580 + Decitabine = compound: COC1=CC=C(C=C1)COC2=C(C=C(C=C2)CC3=CN=C(N=C3N)N)OC [GW-2580] + Nc1ncn([C@H]2C[C@H](O)[C@@H](CO)O2)c(=O)n1 [Decitabine] (partner 2 µM)
Outline: as §1

GW-2580 + Tozasertib = compound: COC1=CC=C(C=C1)COC2=C(C=C(C=C2)CC3=CN=C(N=C3N)N)OC [GW-2580] + Cc1cc(Nc2cc(N3CCN(C)CC3)nc(Sc3ccc(NC(=O)C4CC4)cc3)n2)n[nH]1 [Tozasertib] (partner 0.1 µM)
Outline: as §1

Fedratinib + AZD7762 = compound: Cc1cnc(Nc2ccc(OCCN3CCCC3)cc2)nc1Nc1cccc(S(=O)(=O)NC(C)(C)C)c1 [Fedratinib] + NC(=O)Nc1cc(-c2cccc(F)c2)sc1C(=O)N[C@H]1CCCNC1 [AZD7762] (partner 0.2 µM)
Outline: as §1

| Cell Line | relative viability (GW-2580 + Pemetrexed; first compound 0.08 µM) | relative viability (GW-2580 + Pemetrexed; first compound 0.8 µM) | relative viability (GW-2580 + Pemetrexed; first compound 2.53 µM) | relative viability (GW-2580 + Pemetrexed; first compound 8 µM) | relative viability (Fedratinib + Trametinib; first compound 0.1 µM) | relative viability (Fedratinib + Trametinib; first compound 0.3162 µM) | relative viability (Fedratinib + Trametinib; first compound 1 µM) | relative viability (GW-2580 + Decitabine; first compound 0.08 µM) | relative viability (GW-2580 + Decitabine; first compound 0.8 µM) | relative viability (GW-2580 + Decitabine; first compound 2.53 µM) | relative viability (GW-2580 + Decitabine; first compound 8 µM) | relative viability (GW-2580 + Tozasertib; first compound 0.08 µM) | relative viability (GW-2580 + Tozasertib; first compound 0.8 µM) | relative viability (GW-2580 + Tozasertib; first compound 2.53 µM) | relative viability (GW-2580 + Tozasertib; first compound 8 µM) | relative viability (Fedratinib + AZD7762; first compound 0.1 µM) | relative viability (Fedratinib + AZD7762; first compound 0.3162 µM) | relative viability (Fedratinib + AZD7762; first compound 1 µM) |
| --- | --- | --- | --- | --- | --- | --- | --- | --- | --- | --- | --- | --- | --- | --- | --- | --- | --- | --- |
| 201T | 0.371 | 0.351 | 0.329 | 0.346 | 0.697 | 0.769 | 0.718 | 0.895 | 0.914 | 0.873 | 0.887 | 0.998 | 0.935 | 0.96 | 0.82 | 0.753 | 0.531 | 0.593 |
| A549 | – | – | – | – | – | – | – | – | 0.264 | 0.21 | 0.288 | – | – | – | – | – | – | – |
| A-427 | 0.936 | 1.19 | 0.842 | 0.76 | 0.633 | 0.649 | 0.627 | 0.541 | 0.555 | 0.531 | 0.618 | 0.198 | 0.208 | 0.19 | 0.172 | 0.573 | 0.671 | 0.556 |
| ABC-1 | – | – | – | – | – | – | – | 0.72 | 1.01 | 1.22 | 0.934 | 0.157 | 0.147 | 0.179 | 0.193 | 0.741 | 0.877 | 0.792 |
| BEN | 1.91 | 0.762 | 0.615 | 0.702 | 0.846 | 0.945 | 0.926 | 0.703 | 0.79 | 0.619 | 0.677 | 0.684 | 0.396 | 0.577 | 0.492 | 0.623 | 0.553 | 0.568 |
| CAL-12T | 1.32 | 1.53 | 1.24 | 1.13 | 0.4 | 0.332 | 0.304 | – | – | – | – | 0.422 | 0.365 | 0.349 | 0.297 | 0.594 | 0.618 | 0.666 |
| COR-L23 | 0.197 | 0.196 | 0.205 | 0.194 | 0.576 | 0.604 | 0.155 | 0.451 | 0.462 | 0.448 | 0.432 | 0.209 | 0.202 | 0.179 | 0.185 | – | – | – |
| COR-L 105 | 1.26 | 1.08 | 1.21 | 0.962 | 0.39 | 0.442 | 0.422 | 0.755 | 0.739 | 0.675 | 0.558 | 0.317 | 0.311 | 0.352 | 0.387 | – | – | – |
| ChaGo-K-1 | 0.274 | 0.256 | 0.267 | 0.262 | 0.765 | 0.841 | 0.873 | 0.561 | 0.515 | 0.495 | 0.519 | 0.257 | 0.224 | 0.233 | 0.234 | 0.921 | 0.829 | 0.81 |
| EKVX | 0.434 | 0.392 | 0.355 | 0.358 | 0.333 | 0.293 | 0.363 | 0.578 | 0.749 | 0.345 | 0.335 | 0.553 | 0.428 | 0.313 | 0.321 | 0.738 | 0.815 | 0.656 |
| EMC-BAC-2 | 0.503 | 0.43 | – | 0.502 | 0.931 | 0.939 | 0.978 | 0.977 | 0.961 | – | 0.943 | 0.279 | 0.261 | 0.24 | 0.261 | 1.16 | 1.1 | 0.912 |
| EPLC-272H | 0.325 | 0.283 | 0.342 | 0.329 | 0.275 | 0.281 | 0.278 | 0.391 | 0.366 | – | 0.368 | 0.321 | 0.266 | – | 0.214 | 0.222 | 0.24 | 0.168 |
| H3255 | 0.553 | 0.609 | 0.554 | 0.552 | 0.506 | 0.69 | 0.706 | 0.564 | 0.613 | 0.557 | 0.576 | 0.619 | 0.217 | 0.664 | 0.47 | 0.809 | 0.858 | 0.794 |
| HARA | 0.289 | 0.254 | 0.29 | 0.299 | 0.521 | 0.907 | 0.546 | 0.658 | 0.617 | 0.599 | 0.409 | 0.111 | 0.127 | 0.0978 | 0.0792 | 0.429 | 0.28 | 0.23 |
| HCC-15 | 0.228 | 0.235 | 0.235 | 0.251 | 0.393 | 0.365 | 0.357 | 0.631 | 0.818 | 0.636 | 0.69 | 0.489 | 0.562 | 0.615 | 0.222 | 1.19 | 1.28 | 1.2 |
| HCC-44 | 0.727 | 0.638 | 0.649 | 0.666 | 1.15 | 1.01 | 1.11 | 0.97 | 0.912 | 0.974 | 1.08 | 1.13 | 0.913 | 0.937 | 0.918 | 0.995 | 1 | 1 |
| HCC-78 | 0.972 | 0.939 | 0.909 | 0.948 | 0.677 | 0.776 | 0.938 | 0.699 | 0.786 | 0.634 | 0.698 | 0.253 | 0.357 | 0.401 | 0.314 | 0.582 | 0.526 | 0.497 |
| HCC-366 | 0.194 | 0.145 | 0.16 | 0.121 | 0.363 | 0.36 | 0.257 | 0.328 | 0.375 | 0.352 | 0.449 | 0.102 | 0.146 | 0.12 | 0.19 | 0.326 | 0.234 | 0.188 |
| HCC-827 | 0.242 | 0.259 | 0.236 | 0.276 | 0.515 | 0.567 | 0.503 | 0.275 | 0.317 | 0.299 | 0.319 | 0.557 | 0.469 | 0.47 | 0.371 | 0.161 | 0.205 | 0.219 |
